Test results: PubChem BioAssay (NCI)
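How tested: cells in 96-well plates exposed to compound for 48 hours at five concentrations. TGI: concentration producing complete growth inhibition.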

Columns and labels:
Assay in all cases: NCI-60 cell line screen, 48 h
SF-268 CNS = system: SF-268 CNS
UACC-62 melanoma = system: UACC-62 melanoma
RXF-631 renal = system: RXF-631 renal
EKVX NSCLC = system: EKVX NSCLC
M14 melanoma = system: M14 melanoma
DLD-1 colon = system: DLD-1 colon
MOLT-4 leukemia = system: MOLT-4 leukemia
A498 renal = system: A498 renal
DMS 114 small cell lung = system: DMS 114 small cell lung
K-562 leukemia = system: K-562 leukemia
CAKI-1 renal = system: CAKI-1 renal
OVCAR-3 ovarian = system: OVCAR-3 ovarian
LOX IMVI melanoma = system: LOX IMVI melanoma
SN12C renal = system: SN12C renal
HL-60(TB) leukemia = system: HL-60(TB) leukemia
RPMI-8226 leukemia = system: RPMI-8226 leukemia
UO-31 renal = system: UO-31 renal
MALME-3M melanoma = system: MALME-3M melanoma
SW-620 colon = system: SW-620 colon
TK-10 renal = system: TK-10 renal
IGROV1 ovarian = system: IGROV1 ovarian
HOP-92 NSCLC = system: HOP-92 NSCLC
CCRF-CEM leukemia = system: CCRF-CEM leukemia
KM20L2 colon = system: KM20L2 colon
SF-295 CNS = system: SF-295 CNS
NCI-H226 lung = system: NCI-H226 lung
COLO 205 colon = system: COLO 205 colon
OVCAR-8 ovarian = system: OVCAR-8 ovarian
HCT-15 colon = system: HCT-15 colon
NCI-H23 lung = system: NCI-H23 lung
M19-MEL melanoma = system: M19-MEL melanoma
SF-539 CNS = system: SF-539 CNS
NCI-H460 lung = system: NCI-H460 lung
SK-OV-3 ovarian = system: SK-OV-3 ovarian
HOP-18 NSCLC = system: HOP-18 NSCLC
NCI-H522 lung = system: NCI-H522 lung
SNB-78 CNS = system: SNB-78 CNS
ACHN renal = system: ACHN renal
SNB-19 CNS = system: SNB-19 CNS
SNB-75 CNS = system: SNB-75 CNS
U251 CNS = system: U251 CNS
SK-MEL-28 melanoma = system: SK-MEL-28 melanoma
SK-MEL-2 melanoma = system: SK-MEL-2 melanoma
LXFL 529 NSCLC = system: LXFL 529 NSCLC
SK-MEL-5 melanoma = system: SK-MEL-5 melanoma
DMS 273 small cell lung = system: DMS 273 small cell lung
HT29 colon = system: HT29 colon
A549 NSCLC = system: A549 NSCLC
KM12 colon = system: KM12 colon
HCC-2998 colon = system: HCC-2998 colon
SR leukemia = system: SR leukemia
HOP-62 NSCLC = system: HOP-62 NSCLC
OVCAR-4 ovarian = system: OVCAR-4 ovarian
UACC-257 melanoma = system: UACC-257 melanoma
786-0 renal = system: 786-0 renal
HCT-116 colon = system: HCT-116 colon
OVCAR-5 ovarian = system: OVCAR-5 ovarian

COc1cc2c(cc1OC)C(Cl)C(c1cc(OC)c(OC)c(OC)c1)=C2Cl (stereo not given)
TGI (SF-268 CNS): 55.7 µM | TGI (UACC-62 melanoma): 28.9 µM | TGI (RXF-631 renal): 38.2 µM | TGI (EKVX NSCLC): 79.4 µM | TGI (M14 melanoma): 35.2 µM | TGI (DLD-1 colon): 51.4 µM | TGI (MOLT-4 leukemia): 29.9 µM | TGI (A498 renal): 61.1 µM | TGI (DMS 114 small cell lung): 26.2 µM | TGI (K-562 leukemia): > 100 µM | TGI (CAKI-1 renal): 32.5 µM | TGI (OVCAR-3 ovarian): 31.9 µM | TGI (LOX IMVI melanoma): 30.2 µM | TGI (SN12C renal): 36.6 µM | TGI (HL-60(TB) leukemia): 44.3 µM | TGI (RPMI-8226 leukemia): 37 µM | TGI (UO-31 renal): 27.1 µM | TGI (MALME-3M melanoma): 30.6 µM | TGI (SW-620 colon): 46.1 µM | TGI (TK-10 renal): 62.2 µM | TGI (IGROV1 ovarian): 54.7 µM | TGI (HOP-92 NSCLC): 27.9 µM | TGI (CCRF-CEM leukemia): 40.7 µM | TGI (KM20L2 colon): 36.6 µM | TGI (SF-295 CNS): 29.9 µM | TGI (NCI-H226 lung): 41.4 µM | TGI (COLO 205 colon): 32.9 µM | TGI (OVCAR-8 ovarian): 48.7 µM | TGI (HCT-15 colon): 49.4 µM | TGI (NCI-H23 lung): 51.8 µM | TGI (M19-MEL melanoma): 28.7 µM | TGI (SF-539 CNS): 26.7 µM | TGI (NCI-H460 lung): 32.4 µM | TGI (SK-OV-3 ovarian): 56.2 µM | TGI (HOP-18 NSCLC): 32.3 µM | TGI (NCI-H522 lung): 23 µM | TGI (SNB-78 CNS): 46.4 µM | TGI (ACHN renal): 28.8 µM | TGI (SNB-19 CNS): 37.2 µM | TGI (SNB-75 CNS): 18.1 µM | TGI (U251 CNS): 33 µM | TGI (SK-MEL-28 melanoma): 31.9 µM | TGI (SK-MEL-2 melanoma): 34.1 µM | TGI (LXFL 529 NSCLC): 24.6 µM | TGI (SK-MEL-5 melanoma): 30.5 µM | TGI (DMS 273 small cell lung): 34.6 µM | TGI (HT29 colon): 30.3 µM

CC1=C2C(c3ccccc3)(c3ccccc3)C3C=CC2(C=N3)N(C(=O)NC2CCCCC2)C1=O (stereo not given)
TGI (SF-268 CNS): 34.7 µM | TGI (UACC-62 melanoma): 33.4 µM | TGI (A549 NSCLC): 32.8 µM | TGI (RXF-631 renal): 26.2 µM | TGI (EKVX NSCLC): 28.7 µM | TGI (M14 melanoma): 31.2 µM | TGI (MOLT-4 leukemia): 35.8 µM | TGI (A498 renal): 31.6 µM | TGI (DMS 114 small cell lung): 32.5 µM | TGI (KM12 colon): 32.1 µM | TGI (K-562 leukemia): 34.6 µM | TGI (CAKI-1 renal): 26.1 µM | TGI (HCC-2998 colon): 32.4 µM | TGI (OVCAR-3 ovarian): 28.2 µM | TGI (LOX IMVI melanoma): 29.5 µM | TGI (SN12C renal): 31.7 µM | TGI (HL-60(TB) leukemia): 30.2 µM | TGI (RPMI-8226 leukemia): 37.8 µM | TGI (UO-31 renal): 27.3 µM | TGI (MALME-3M melanoma): 31.6 µM | TGI (SW-620 colon): 31.9 µM | TGI (SR leukemia): 37.7 µM | TGI (IGROV1 ovarian): 35.7 µM | TGI (HOP-92 NSCLC): 27.4 µM | TGI (CCRF-CEM leukemia): 36.1 µM | TGI (KM20L2 colon): 30.6 µM | TGI (SF-295 CNS): 31.2 µM | TGI (COLO 205 colon): 29.3 µM | TGI (OVCAR-8 ovarian): 33.6 µM | TGI (HCT-15 colon): 30.4 µM | TGI (NCI-H23 lung): 32.5 µM | TGI (HOP-62 NSCLC): 31.7 µM | TGI (SF-539 CNS): 30.7 µM | TGI (SK-OV-3 ovarian): 44.3 µM | TGI (HOP-18 NSCLC): 34.3 µM | TGI (SNB-78 CNS): 31.9 µM | TGI (ACHN renal): 33.8 µM | TGI (SNB-19 CNS): 32.9 µM | TGI (U251 CNS): 30.6 µM | TGI (SK-MEL-28 melanoma): 30.6 µM | TGI (OVCAR-4 ovarian): 31.5 µM | TGI (UACC-257 melanoma): 30.9 µM | TGI (LXFL 529 NSCLC): 30.1 µM | TGI (SK-MEL-5 melanoma): 30.5 µM | TGI (DMS 273 small cell lung): 33.2 µM | TGI (786-0 renal): 29.4 µM | TGI (HCT-116 colon): 29.4 µM | TGI (OVCAR-5 ovarian): 31.5 µM
